# Data as given in US8765773B2, “Substituted hydroxamic acids and uses thereof” (Millennium Pharmaceuticals, Inc., priority 2010, dated 2014).
# Target: T1, purified human HDAC6 (Homo sapiens, UniProt Q9UBN7)
# T1 construct: purchased BPS Bioscience 5006
# T1 sequence (Q9UBN7 1-1215): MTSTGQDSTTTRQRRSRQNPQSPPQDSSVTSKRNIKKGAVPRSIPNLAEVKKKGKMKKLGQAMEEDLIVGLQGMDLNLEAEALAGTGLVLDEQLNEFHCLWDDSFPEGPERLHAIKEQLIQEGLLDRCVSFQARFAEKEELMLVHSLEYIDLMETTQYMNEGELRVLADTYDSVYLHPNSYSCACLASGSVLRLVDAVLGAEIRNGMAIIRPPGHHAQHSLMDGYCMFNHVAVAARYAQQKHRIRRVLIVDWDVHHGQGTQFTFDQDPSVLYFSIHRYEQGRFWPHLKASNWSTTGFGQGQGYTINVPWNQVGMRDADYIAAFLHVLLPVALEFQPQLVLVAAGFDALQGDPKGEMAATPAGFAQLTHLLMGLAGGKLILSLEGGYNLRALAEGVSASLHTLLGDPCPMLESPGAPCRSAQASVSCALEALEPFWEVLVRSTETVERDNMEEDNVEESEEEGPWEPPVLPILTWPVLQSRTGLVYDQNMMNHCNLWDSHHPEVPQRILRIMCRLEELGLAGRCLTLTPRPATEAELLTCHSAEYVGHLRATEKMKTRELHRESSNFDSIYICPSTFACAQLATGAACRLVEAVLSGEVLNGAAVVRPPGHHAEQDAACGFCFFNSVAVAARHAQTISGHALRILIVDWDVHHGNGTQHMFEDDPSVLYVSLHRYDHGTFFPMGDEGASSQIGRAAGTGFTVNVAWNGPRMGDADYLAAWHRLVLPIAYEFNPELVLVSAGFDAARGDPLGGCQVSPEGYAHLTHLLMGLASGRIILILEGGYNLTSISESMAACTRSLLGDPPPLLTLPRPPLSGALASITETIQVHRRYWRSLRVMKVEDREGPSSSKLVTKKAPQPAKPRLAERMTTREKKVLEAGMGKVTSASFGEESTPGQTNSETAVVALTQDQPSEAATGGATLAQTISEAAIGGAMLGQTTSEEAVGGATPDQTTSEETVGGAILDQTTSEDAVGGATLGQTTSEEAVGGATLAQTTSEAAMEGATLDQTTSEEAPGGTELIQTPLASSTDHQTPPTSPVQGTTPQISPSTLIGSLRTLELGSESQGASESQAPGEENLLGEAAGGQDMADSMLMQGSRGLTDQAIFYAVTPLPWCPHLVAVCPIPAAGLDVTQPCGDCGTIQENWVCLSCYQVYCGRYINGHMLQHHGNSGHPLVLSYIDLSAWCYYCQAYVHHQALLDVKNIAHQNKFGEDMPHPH
# Experiment: HDAC6 Enzyme Assay
# Type: biochemical
# Conditions: compound concentration 0.37 μM, read-out: Percent Inhibition
# How it was run: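 Purified human HDAC6 incubated 1 h at 30° C with Ac-Arg-Gly-Lys(Ac)-AMC peptide plus compound or DMSO; stopped with trichostatin A. Deacetylated product trypsin-digested, released AMC read by fluorescence (Ex 340/Em 460 nm). Percent inhibition at one concentration or IC50 from curves relative to DMSO controls.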
row,inhibition at 0.37 µM,Compound
1,23.2%,"CN(C)Cc1cn(Cc2ccccc2)c(=O)c2cc(C(=O)NO)ccc12 [Compound I-419, 2-benzyl-4-[(dimethylamino)methyl]-N-hydroxy-1-oxo-1,2-dihydroisoquinoline-7-carboxamide]"
2,89.5%,"CC(C)(C)OC(=O)N1CCC(C(CCn2ccc3ccc(C(=O)NO)cc3c2=O)c2ccc(Cl)cc2)CC1 (centres unmarked) [Compound I-205, tert-butyl 4-{1-(4-chlorophenyl)-3-[7-[(hydroxyamino)carbonyl]-1-oxoisoquinolin-2(1H)-yl]propyl}piperidine-1-carboxylate]"
3,88.2%,"O=C(NO)c1ccc2c(=O)[nH]c(-c3ccccc3)nc2c1 [Compound I-401, N-hydroxy-4-oxo-2-phenyl-3,4-dihydroquinazoline-7-carboxamide]"
4,83.8%,"CN(C)S(=O)(=O)c1cccc(-c2cccc(CCn3cnc4ccc(C(=O)NO)cc4c3=O)c2)c1 [Compound I-309, 3-(2-{3′-[(dimethylamino)sulfonyl]biphenyl-3-yl}ethyl)-N-hydroxy-4-oxo-3,4-dihydroquinazoline-6-carboxamide]"
5,90.1%,"CCN1CCC(CCn2ccc3ccc(C(=O)NO)cc3c2=O)CC1 [Compound I-315, 2-[2-(1-ethylpiperidin-4-yl)ethyl]-N-hydroxy-1-oxo-1,2-dihydroisoquinoline-7-carboxamide]"
6,94.1%,"CC(C)(c1ccccc1)n1cnc2ccc(C(=O)NO)cc2c1=O [Compound I-413, N-hydroxy-3-(1-methyl-1-phenylethyl)-4-oxo-3,4-dihydroquinazoline-6-carboxamide]"
7,92.5%,"O=C(NO)c1ccc2c(=O)[nH]c(CC3CCCCC3)nc2c1 [Compound I-409, 2-(cyclohexylmethyl)-N-hydroxy-4-oxo-3,4-dihydroquinazoline-7-carboxamide]"
8,94.5%,"CS(=O)(=O)c1cccc(-c2cccc(CCn3cnc4ccc(C(=O)NO)cc4c3=O)c2)c1 [Compound I-341, N-hydroxy-3-{2-[3′-(methylsulfonyl)biphenyl-3-yl]ethyl}-4-oxo-3,4-dihydroquinazoline-6-carboxamide]"
9,82.8%,"O=C(NO)c1ccc2c(Br)cn(Cc3ccccc3)c(=O)c2c1 [Compound I-292, 2-benzyl-4-bromo-N-hydroxy-1-oxo-1,2-dihydroisoquinoline-7-carboxamide]"
10,87.3%,"O=C(O)c1ccc(-c2cccc(CCn3cnc4ccc(C(=O)NO)cc4c3=O)c2)cc1 [Compound I-321, 3′-{2-[6-[(hydroxyamino)carbonyl]-4-oxoquinazolin-3(4H)-yl]ethyl}biphenyl-4-carboxylic acid]"
11,57.7%,"O=C(NO)c1ccc2c(CO)cn(Cc3ccccc3)c(=O)c2c1 [Compound I-337, 2-benzyl-N-hydroxy-4-(hydroxymethyl)-1-oxo-1,2-dihydroisoquinoline-7-carboxamide]"

# Continued, compound first:
row,Compound,inhibition at 0.37 µM
1,"O=C(NO)c1ccc2ccn(-c3cccc(Cl)c3)c(=O)c2c1 [Compound I-179, 2-(3-chlorophenyl)-N-hydroxy-1-oxo-1,2-dihydroisoquinoline-7-carboxamide]",97.5%
2,"COc1ccc(-c2cccc(Cn3cnc4ccc(C(=O)NO)cc4c3=O)c2)cn1 [Compound I-143, N-hydroxy-3-[3-(6-methoxypyridin-3-yl)benzyl]-4-oxo-3,4-dihydroquinazoline-6-carboxamide]",96.6%
3,"O=C(NO)c1ccc2ncn(Cc3cccc(-c4ccccc4C(F)(F)F)c3)c(=O)c2c1 [Compound I-124, N-hydroxy-4-oxo-3-{[2′-(trifluoromethyl)biphenyl-3-yl]methyl}-3,4-dihydroquinazoline-6-carboxamide]",91.4%
4,"COc1ncccc1-c1cccc(Cn2cnc3ccc(C(=O)NO)cc3c2=O)c1 [Compound I-136, N-hydroxy-3-[3-(2-methoxypyridin-3-yl)benzyl]-4-oxo-3,4-dihydroquinazoline-6-carboxamide]",94%

# Same assay, conditions: compound concentration 0.412 μM, read-out: Percent Inhibition
row,inhibition at 0.412 µM,Compound
1,68.2%,"O=C(NO)c1ccc2c(=O)n(-c3ccc(Cl)cc3)c(NCc3ccc(Cl)cc3)nc2c1 [Compound I-262, 2-[(4-chlorobenzyl)amino]-3-(4-chlorophenyl)-N-hydroxy-4-oxo-3,4-dihydroquinazoline-7-carboxamide]"
2,63.3%,"O=C(NO)c1ccc2nc[nH]c(=O)c2c1 [Compound I-283, N-hydroxy-4-oxo-3,4-dihydroquinazoline-6-carboxamide]"
3,95.8%,"O=C(NO)c1ccc2ccn(Cc3cccc(Cl)c3)c(=O)c2c1 [Compound I-206, 2-(3-chlorobenzyl)-N-hydroxy-1-oxo-1,2-dihydroisoquinoline-7-carboxamide]"
4,76.8%,"O=C(NO)c1ccc2c(=O)[nH]cnc2c1 [Compound I-284, N-hydroxy-4-oxo-3,4-dihydroquinazoline-7-carboxamide]"

# Continued, compound first:
row,Compound,inhibition at 0.412 µM
1,"Cn1c(=O)[nH]c2ccc(C(=O)NO)cc2c1=O [Compound I-169, N-hydroxy-3-methyl-2,4-dioxo-1,2,3,4-tetrahydroquinazoline-6-carboxamide]",62.8%
2,"O=C(NO)c1ccc2ccn(CC(c3ccccc3)C3CCCCC3)c(=O)c2c1 (centres unmarked) [Compound I-96, 2-(2-cyclohexyl-2-phenylethyl)-N-hydroxy-1-oxo-1,2-dihydroisoquinoline-7-carboxamide]",80.9%
3,"O=C(NO)c1ccc2ncn(Cc3cccc(F)c3)c(=O)c2c1 [Compound I-111, 3-(3-fluorobenzyl)-N-hydroxy-4-oxo-3,4-dihydroquinazoline-6-carboxamide]",93.5%
4,"O=C(NO)c1ccc2ncn(Cc3cccc(Cl)c3)c(=O)c2c1 [Compound I-127, 3-(3-chlorobenzyl)-N-hydroxy-4-oxo-3,4-dihydroquinazoline-6-carboxamide]",96.1%
5,"O=C(NO)c1ccc2ccn(CCCOc3ccc4c(c3)CCC4)c(=O)c2c1 [Compound I-42, 2-[3-(2,3-dihydro-1H-inden-5-yloxy)propyl]-N-hydroxy-1-oxo-1,2-dihydroisoquinoline-7-carboxamide]",94.4%
6,"O=C(NO)c1ccc2ncn(Cc3nc4ccccc4s3)c(=O)c2c1 [Compound I-67, 3-(1,3-benzothiazol-2-ylmethyl)-N-hydroxy-4-oxo-3,4-dihydroquinazoline-6-carboxamide]",49.2%
7,"O=C(NO)c1ccc2c(=O)n(Cc3cccc(C(F)(F)F)c3)cnc2c1 [Compound I-16, N-hydroxy-4-oxo-3-[3-(trifluoromethyl)benzyl]-3,4-dihydroquinazoline-7-carboxamide]",95.8%
8,"CC(C)n1cnc2ccc(C(=O)NO)cc2c1=O [Compound I-121, N-hydroxy-3-isopropyl-4-oxo-3,4-dihydroquinazoline-6-carboxamide]",71.9%
9,"O=C(NO)c1ccc2ccn(Cc3ccc(F)cc3)c(=O)c2c1 [Compound I-76, 2-(4-fluorobenzyl)-N-hydroxy-1-oxo-1,2-dihydroisoquinoline-7-carboxamide]",93.8%
10,"CC(C)(C)c1ccc(Cn2cnc3cc(C(=O)NO)ccc3c2=O)cc1 [Compound I-87, 3-(4-tert-butylbenzyl)-N-hydroxy-4-oxo-3,4-dihydroquinazoline-7-carboxamide]",91%
